Source: PMC10065276, “Enhanced therapeutic window for antimicrobial Pept-ins by investigating their structure-activity relationship” (PLOS ONE, 2023)
Values after ≈ are worked out from the molar mass of the structure shown. Residues, ends and D or L forms follow the SMILES beside them.

System: E. coli BL21
Details: BL21, 17 h
Experimental: The peptide MIC was determined via the broth microdilution assay according to the EUCAST guideline, using 96-well polystyrene flat-bottom microtiter plates (BD Biosciences). Briefly, a single colony was inoculated in 5 mL Mueller-Hinton (MH) medium and incubated, while shaking at 37°C, to the end-exponential growth phase. The bacterial culture was subsequently diluted to 0.005 McFarland (McF) (~1.5x10^6 CFU/mL) with fresh MH medium. Two-fold serial peptide-dilutions were prepared in 50 μL MH medium resulting in a concentration range of 0.75 to 100 μg/mL (at least three wells for each concentration). Afterwards, 50 μL of the freshly diluted bacterial suspension (0.005 McF) was mixed with different peptide concentrations in the 96-well plate, performed in triplicates. The plate was ultimately incubated at 37°C overnight without shaking for 17 hours. The MIC was determined as the lowest peptide concentration without visible bacterial growth.

SMILES | BL21 MIC | MIC against E. coli BL21
CC(C)C[C@H](NC(=O)CNC(=O)[C@H](CCCNC(=N)N)NC(=O)[C@@H]1CCCN1C(=O)[C@H](CCCNC(=N)N)NC(=O)[C@H](CCCNC(=N)N)NC(=O)[C@@H](NC(=O)[C@H](CC(C)C)NC(=O)[C@H](Cc1ccccc1)NC(=O)[C@H](CC(C)C)NC(=O)CNC(=O)[C@H](CC(C)C)NC(=O)CNC(=O)[C@@H](N)CCCNC(=N)N)C(C)C)C(=O)NCC(=O)N[C@@H](CC(C)C)C(=O)N[C@@H](Cc1ccccc1)C(=O)N[C@@H](CC(C)C)C(=O)N[C@H](C(=O)N[C@@H](CCCNC(=N)N)C(=O)N[C@@H](CCCNC(=N)N)C(=O)O)C(C)C [A5F (P2)] (H-RGLGLFLVRRPRGLGLFLVRR-OH) | 12.50 µg/mL | 
CC(C)C[C@H](NC(=O)CNC(=O)[C@H](CC(C)C)NC(=O)CNC(=O)[C@H](CCCNC(=N)N)NC(=O)[C@@H]1CCCN1C(=O)[C@H](CCCNC(=N)N)NC(=O)[C@H](CCCNC(=N)N)NC(=O)[C@@H](NC(=O)[C@H](CC(C)C)NC(=O)CNC(=O)[C@H](CC(C)C)NC(=O)CNC(=O)[C@H](CC(C)C)NC(=O)CNC(=O)[C@@H](N)CCCNC(=N)N)C(C)C)C(=O)NCC(=O)N[C@@H](CC(C)C)C(=O)N[C@H](C(=O)N[C@@H](CCCNC(=N)N)C(=O)N[C@@H](CCCNC(=N)N)C(=O)O)C(C)C [A5G (P2)] (H-RGLGLGLVRRPRGLGLGLVRR-OH) | 25.00 µg/mL | 
CC[C@H](C)[C@H](NC(=O)[C@H](CC(C)C)NC(=O)CNC(=O)[C@H](CC(C)C)NC(=O)CNC(=O)[C@H](CCCNC(=N)N)NC(=O)[C@@H]1CCCN1C(=O)[C@H](CCCNC(=N)N)NC(=O)[C@H](CCCNC(=N)N)NC(=O)[C@@H](NC(=O)[C@H](CC(C)C)NC(=O)[C@@H](NC(=O)[C@H](CC(C)C)NC(=O)CNC(=O)[C@H](CC(C)C)NC(=O)CNC(=O)[C@@H](N)CCCNC(=N)N)[C@@H](C)CC)C(C)C)C(=O)N[C@@H](CC(C)C)C(=O)N[C@H](C(=O)N[C@@H](CCCNC(=N)N)C(=O)N[C@@H](CCCNC(=N)N)C(=O)O)C(C)C [A5I (P2)] (H-RGLGLILVRRPRGLGLILVRR-OH) | 6.25 µg/mL | 
CC(C)C[C@H](NC(=O)CNC(=O)[C@H](CCCNC(=N)N)NC(=O)[C@@H]1CCCN1C(=O)[C@H](CCCNC(=N)N)NC(=O)[C@H](CCCNC(=N)N)NC(=O)[C@@H](NC(=O)[C@H](CC(C)C)NC(=O)[C@H](CC(C)C)NC(=O)[C@H](CC(C)C)NC(=O)CNC(=O)[C@H](CC(C)C)NC(=O)CNC(=O)[C@@H](N)CCCNC(=N)N)C(C)C)C(=O)NCC(=O)N[C@@H](CC(C)C)C(=O)N[C@@H](CC(C)C)C(=O)N[C@@H](CC(C)C)C(=O)N[C@H](C(=O)N[C@@H](CCCNC(=N)N)C(=O)N[C@@H](CCCNC(=N)N)C(=O)O)C(C)C [A5L (P2)] (H-RGLGLLLVRRPRGLGLLLVRR-OH) | 12.50 µg/mL | 
CSCC[C@H](NC(=O)[C@H](CC(C)C)NC(=O)CNC(=O)[C@H](CC(C)C)NC(=O)CNC(=O)[C@H](CCCNC(=N)N)NC(=O)[C@@H]1CCCN1C(=O)[C@H](CCCNC(=N)N)NC(=O)[C@H](CCCNC(=N)N)NC(=O)[C@@H](NC(=O)[C@H](CC(C)C)NC(=O)[C@H](CCSC)NC(=O)[C@H](CC(C)C)NC(=O)CNC(=O)[C@H](CC(C)C)NC(=O)CNC(=O)[C@@H](N)CCCNC(=N)N)C(C)C)C(=O)N[C@@H](CC(C)C)C(=O)N[C@H](C(=O)N[C@@H](CCCNC(=N)N)C(=O)N[C@@H](CCCNC(=N)N)C(=O)O)C(C)C [A5M (P2)] (H-RGLGLMLVRRPRGLGLMLVRR-OH) | 6.25 µg/mL | 
CC(C)C[C@H](NC(=O)CNC(=O)[C@H](CCCNC(=N)N)NC(=O)[C@@H]1CCCN1C(=O)[C@H](CCCNC(=N)N)NC(=O)[C@H](CCCNC(=N)N)NC(=O)[C@@H](NC(=O)[C@H](CC(C)C)NC(=O)[C@H](Cc1c[nH]c2ccccc12)NC(=O)[C@H](CC(C)C)NC(=O)CNC(=O)[C@H](CC(C)C)NC(=O)CNC(=O)[C@@H](N)CCCNC(=N)N)C(C)C)C(=O)NCC(=O)N[C@@H](CC(C)C)C(=O)N[C@@H](Cc1c[nH]c2ccccc12)C(=O)N[C@@H](CC(C)C)C(=O)N[C@H](C(=O)N[C@@H](CCCNC(=N)N)C(=O)N[C@@H](CCCNC(=N)N)C(=O)O)C(C)C [A5W (P2)] (H-RGLGLWLVRRPRGLGLWLVRR-OH) | 12.50 µg/mL | 
CC(C)C[C@H](NC(=O)CNC(=O)[C@H](CCCNC(=N)N)NC(=O)[C@@H]1CCCN1C(=O)[C@H](CCCNC(=N)N)NC(=O)[C@H](CCCNC(=N)N)NC(=O)[C@@H](NC(=O)[C@H](CC(C)C)NC(=O)[C@H](Cc1ccc(O)cc1)NC(=O)[C@H](CC(C)C)NC(=O)CNC(=O)[C@H](CC(C)C)NC(=O)CNC(=O)[C@@H](N)CCCNC(=N)N)C(C)C)C(=O)NCC(=O)N[C@@H](CC(C)C)C(=O)N[C@@H](Cc1ccc(O)cc1)C(=O)N[C@@H](CC(C)C)C(=O)N[C@H](C(=O)N[C@@H](CCCNC(=N)N)C(=O)N[C@@H](CCCNC(=N)N)C(=O)O)C(C)C [A5Y (P2)] (H-RGLGLYLVRRPRGLGLYLVRR-OH) | 6.25 µg/mL | 
CC(C)C[C@H](NC(=O)CNC(=O)[C@H](CCCNC(=N)N)NC(=O)[C@@H]1CCCN1C(=O)[C@H](CCCNC(=N)N)NC(=O)[C@H](CCCNC(=N)N)NC(=O)[C@@H](NC(=O)CNC(=O)[C@H](C)NC(=O)[C@H](CC(C)C)NC(=O)CNC(=O)[C@H](CC(C)C)NC(=O)CNC(=O)[C@@H](N)CCCNC(=N)N)C(C)C)C(=O)NCC(=O)N[C@@H](CC(C)C)C(=O)N[C@@H](C)C(=O)NCC(=O)N[C@H](C(=O)N[C@@H](CCCNC(=N)N)C(=O)N[C@@H](CCCNC(=N)N)C(=O)O)C(C)C [L6G (P2)] (H-RGLGLAGVRRPRGLGLAGVRR-OH) | 100.00 µg/mL | 
CC(C)C[C@H](NC(=O)CNC(=O)[C@H](CCCNC(=N)N)NC(=O)[C@@H]1CCCN1C(=O)[C@H](CCCNC(=N)N)NC(=O)[C@H](CCCNC(=N)N)NC(=O)[C@H](Cc1c[nH]cn1)NC(=O)[C@H](Cc1c[nH]cn1)NC(=O)[C@H](C)NC(=O)[C@H](CC(C)C)NC(=O)CNC(=O)[C@H](CC(C)C)NC(=O)CNC(=O)[C@@H](N)CCCNC(=N)N)C(=O)NCC(=O)N[C@@H](CC(C)C)C(=O)N[C@@H](C)C(=O)N[C@@H](Cc1c[nH]cn1)C(=O)N[C@@H](Cc1c[nH]cn1)C(=O)N[C@@H](CCCNC(=N)N)C(=O)N[C@@H](CCCNC(=N)N)C(=O)O [P2_zero_tango_3] (H-RGLGLAHHRRPRGLGLAHHRR-OH) | >100.00 µg/mL | 
CC(C)C[C@H](NC(=O)CNC(=O)[C@H](CCCNC(=N)N)NC(=O)[C@@H]1CCCN1C(=O)[C@H](CCCNC(=N)N)NC(=O)[C@H](CCCNC(=N)N)NC(=O)[C@@H]1CCCN1C(=O)[C@H](CC(C)C)NC(=O)[C@H](C)NC(=O)[C@H](CC(C)C)NC(=O)CNC(=O)[C@H](CC(C)C)NC(=O)CNC(=O)[C@@H](N)CCCNC(=N)N)C(=O)NCC(=O)N[C@@H](CC(C)C)C(=O)N[C@@H](C)C(=O)N[C@@H](CC(C)C)C(=O)N1CCC[C@H]1C(=O)N[C@@H](CCCNC(=N)N)C(=O)N[C@@H](CCCNC(=N)N)C(=O)O [P2_zero_tango_4] (H-RGLGLALPRRPRGLGLALPRR-OH) | >100.00 µg/mL | 
CC(C)C[C@H](NC(=O)CNC(=O)[C@H](CCCNC(=N)N)NC(=O)[C@@H]1CCCN1C(=O)[C@H](CCCNC(=N)N)NC(=O)[C@H](CCCNC(=N)N)NC(=O)[C@@H](NC(=O)[C@H](CC(C)C)NC(=O)[C@H](CC(=O)O)NC(=O)[C@H](CC(C)C)NC(=O)CNC(=O)[C@H](CC(C)C)NC(=O)CNC(=O)[C@@H](N)CCCNC(=N)N)C(C)C)C(=O)NCC(=O)N[C@@H](CC(C)C)C(=O)N[C@@H](CC(=O)O)C(=O)N[C@@H](CC(C)C)C(=O)N[C@H](C(=O)N[C@@H](CCCNC(=N)N)C(=O)N[C@@H](CCCNC(=N)N)C(=O)O)C(C)C [P2_zero_tango_5] (H-RGLGLDLVRRPRGLGLDLVRR-OH) | >100.00 µg/mL | 
CC(C)C[C@H](NC(=O)CNC(=O)[C@H](CCCNC(=N)N)NC(=O)[C@H](C)NC(=O)[C@H](C)NC(=O)[C@H](CCCNC(=N)N)NC(=O)[C@@H](NC(=O)[C@H](CC(C)C)NC(=O)[C@H](C)NC(=O)[C@H](CC(C)C)NC(=O)CNC(=O)[C@H](CC(C)C)NC(=O)CNC(=O)[C@@H](N)CCCNC(=N)N)C(C)C)C(=O)NCC(=O)N[C@@H](CC(C)C)C(=O)N[C@@H](C)C(=O)N[C@@H](CC(C)C)C(=O)N[C@H](C(=O)N[C@@H](C)C(=O)N[C@@H](CCCNC(=N)N)C(=O)O)C(C)C [Peptide P2_4R_A] (H-RGLGLALVRAARGLGLALVAR-OH) | 12.50 µg/mL | 
CC(C)C[C@H](NC(=O)CNC(=O)[C@H](CCCNC(=N)N)NC(=O)[C@H](Cc1ccccc1)NC(=O)[C@H](C)NC(=O)[C@H](CCCNC(=N)N)NC(=O)[C@@H](NC(=O)[C@H](CC(C)C)NC(=O)[C@H](C)NC(=O)[C@H](CC(C)C)NC(=O)CNC(=O)[C@H](CC(C)C)NC(=O)CNC(=O)[C@@H](N)CCCNC(=N)N)C(C)C)C(=O)NCC(=O)N[C@@H](CC(C)C)C(=O)N[C@@H](C)C(=O)N[C@@H](CC(C)C)C(=O)N[C@H](C(=O)N[C@@H](C)C(=O)N[C@@H](CCCNC(=N)N)C(=O)O)C(C)C [Peptide P2_4R_F] (H-RGLGLALVRAFRGLGLALVAR-OH) | 12.50 µg/mL | 
CC(C)C[C@H](NC(=O)CNC(=O)[C@H](CCCNC(=N)N)NC(=O)[C@@H](NC(=O)CNC(=O)[C@H](C)NC(=O)[C@H](CCCNC(=N)N)NC(=O)[C@@H](NC(=O)[C@H](CC(C)C)NC(=O)[C@H](C)NC(=O)[C@H](CC(C)C)NC(=O)CNC(=O)[C@H](CC(C)C)NC(=O)CNC(=O)[C@@H](N)CCCNC(=N)N)C(C)C)C(C)C)C(=O)NCC(=O)N[C@@H](CC(C)C)C(=O)N[C@@H](C)C(=O)N[C@@H](CC(C)C)C(=O)N[C@H](C(=O)N[C@@H](C)C(=O)N[C@@H](CCCNC(=N)N)C(=O)O)C(C)C [Peptide P2_4R_GV] (H-RGLGLALVRAGVRGLGLALVAR-OH) | 6.25 µg/mL | 6.3 µg/mL (≈ 2.88 µM)
